A short description of data set [1]: Antiradical activity assay (DPPH radical scavenging). The note with it: DPPH in ethanol, 30 min in the dark at room temperature, absorbance 520 nm; mean [SD] of 2 experiments. How it is done:
The radical scavenging activity of test compounds was measured as previously described using 2,2-diphenyl-1-picrylhydrazyl (DPPH) as a stable radical with slight modifications. Particular care was taken in the preparation of the control (DPPH reagent + ethanol as a diluent without test compounds). Controls with O.D. of 0.350-0.360 at 520 nm were deemed as acceptable to avoid variations in IC50 calculations. 1 mL of DPPH in ethanol ([…]) was mixed with 1 mL of the test compounds at the indicated concentrations or their diluent (ethanol). Each mixture was then shaken vigorously and held in the dark for 30 min at room temperature. The absorbance of DPPH at 520 nm was then measured. The radical scavenging activity was expressed in terms of % inhibition of DPPH absorbance: (1) % Inhibition=[(Acontrol−Atest)/(Acontrol)] ×100, where A control is the absorbance of the control (DPPH solution without test compound) and A test is the absorbance of the test sample (DPPH solution plus compound). Data are expressed as means ± SD of 2 independent experiments, each performed in triplicate (Table 1). IC50 values were calculated from a sigmoidal concentration-response curve fitting model with a variable slope on GraphPad Prism 5 software (GraphPad software, San Diego, California).
Radical scavenging activities of analogous cinnamoyl esters 8a–h, cinnamoyl amides 9a–h, caffeoyl esters 15a–h, and caffeoyl amides 16a–h were assayed using 2,2-diphenyl-1-picrylhydrazyl (DPPH) as a stable radical and are expressed as IC50 concentrations in Table 1.

Data set [2] concerns the target T1, 5-LO (Homo sapiens, UniProt P09917).
T1 sequence (P09917 1-674): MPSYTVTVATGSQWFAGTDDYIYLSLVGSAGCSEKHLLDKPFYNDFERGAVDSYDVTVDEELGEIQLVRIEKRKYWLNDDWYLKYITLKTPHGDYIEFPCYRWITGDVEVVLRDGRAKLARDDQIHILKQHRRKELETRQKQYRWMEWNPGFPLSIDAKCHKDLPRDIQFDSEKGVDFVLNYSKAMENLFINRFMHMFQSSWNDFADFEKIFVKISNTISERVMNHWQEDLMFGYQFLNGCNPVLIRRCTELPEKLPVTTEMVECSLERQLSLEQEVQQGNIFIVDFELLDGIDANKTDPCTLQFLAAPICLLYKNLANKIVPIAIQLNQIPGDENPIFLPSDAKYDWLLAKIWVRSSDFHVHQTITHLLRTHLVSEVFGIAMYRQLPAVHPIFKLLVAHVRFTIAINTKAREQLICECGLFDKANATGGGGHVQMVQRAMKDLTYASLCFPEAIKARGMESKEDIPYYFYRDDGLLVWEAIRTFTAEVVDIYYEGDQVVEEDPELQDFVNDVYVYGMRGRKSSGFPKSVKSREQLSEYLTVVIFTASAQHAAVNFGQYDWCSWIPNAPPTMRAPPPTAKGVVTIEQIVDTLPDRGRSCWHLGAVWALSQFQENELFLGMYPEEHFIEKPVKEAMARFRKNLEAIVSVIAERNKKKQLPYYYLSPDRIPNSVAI
The data set is described as follows: 5-LO products biosynthesis assay in thapsigargin-stimulated human PMNL. The data set is classed as cell-based. Also noted: 5-LO is highly expressed in PMNL; endogenous in cells; host or cells: human PMNL from peripheral blood. The note with it: for potency relative to Zileuton (1) in human PMNL: comparison of IC50 values, thapsigargin-stimulated human PMNL; for IC50: read-out: Human PMNL IC50 (μM) [SD]. As for the experimental part:
Human PMNL were prepared from peripheral blood as described and were suspended in HBSS containing 1.6 mM CaCl2 (10^7 cells/mL) and preincubated with compounds for 5 min at 37°C in the presence of 1 U/mL of adenosine deaminase (Sigma-Aldrich, Oakville, ON, Canada). Cells were then stimulated for 15 min at 37°C with 1 μM thapsigargin (Sigma-Aldrich). Reactions were stopped by the addition of 0.5 volume of cold MeOH : CH3CN (1 : 1) and 50 ng of PGB2 as internal standard and samples were stored at −20°C until processing on octadecyl (C18) columns and RP-HPLC analysis as indicated above. Data are expressed as means ± SEM of 3 independent experiments, each performed in duplicate (Figures 4 and 5).
5-LO is highly expressed in PMNL and these cells are important producers of LTB4 [28, 32].

Data set [3] concerns the target T1, 5-LO. The data set is described as follows: 5-LO products biosynthesis assay in whole HEK293 cells stably transfected with 5-LO and FLAP. It is filed as cell-based. Also noted: expressed in transfected cells. The note with it: for potency relative to Zileuton (1) in HEK293 cells: comparison of IC50 values. An excerpt:
HEK293 cells were cotransfected with a pcDNA3.1 vector expressing 5-LO and a pBUDCE4.1 vector expressing 5-LO activating protein (FLAP) using Polyfect reagent (QIAGEN, Mississauga, ON, Canada) according to the manufacturer's protocol. Stable transfections of HEK293 cells were obtained following cell culture in the presence of Geneticin and Zeocin (Invitrogen, Burlington, ON, Canada). The resulting stable double transfectants were propagated in culture and aliquots were frozen. Once thawed for a series of experiments, each aliquot of cells is cultured for a maximum of 6 weeks before being discarded.
For cell stimulation of 5-LO products, transfected HEK293 cells were collected following trypsinization, washed and the cell pellet was resuspended in Hank's balanced salt solution (HBSS) (Lonza, Walkersville, MD) containing 1.6 mM CaCl2 at a concentration of 5 × 10^5 cells mL^−1. Cells were preincubated with each compound at the indicated concentration for 5 min at 37°C. Cells were then stimulated for 15 minutes at 37°C with the addition of 10 μM calcium ionophore A23187 (Sigma-Aldrich, Oakville, ON, Canada) and 10 μM arachidonic acid (Cayman Chemical, Ann Arbor, MI). Stimulations were stopped and processed on RP-HPLC as described previously. Data are expressed as means ± SEM of 3 independent experiments, each performed in duplicate (Figures 2 and 3).

With `O=C(C=Cc1ccccc1)OCCn1ccnn1` [8a, 2-(1H-1,2,3-Triazol-1-yl)ethyl Cinnamate], the melting point was in the range of 99 to 100 °C. The same measure, in the same setting: next, `CCCc1cn(CCOC(=O)C=Cc2ccccc2)nn1` [8b, 2-(4-Propyl-1H-1,2,3-triazol-1-yl)ethyl Cinnamate]: 63 to 64 °C; `O=C(C=Cc1ccccc1)OCCn1cc(C2CCCCC2)nn1` [8c]: 119 °C; `O=C(C=Cc1ccccc1)OCCn1cc(C2=CCCCC2)nn1` [8d]: 101 to 103 °C. The same measure, in the same setting: the result for `O=C(C=Cc1ccccc1)OCCn1cc(-c2ccccc2)nn1` [8e] reads 122 to 123 °C; that for `Cc1ccc(-c2cn(CCOC(=O)C=Cc3ccccc3)nn2)cc1` [8f], 139 to 140 °C; that for `O=C(C=Cc1ccccc1)OCCn1cc(-c2ccc(F)cc2)nn1` [8g], 134 to 135 °C.

As for `O=Cc1ccc(-c2cn(CCOC(=O)C=Cc3ccccc3)nn2)cc1` [8h], the melting point was 127 to 128 °C.

As for `O=C(C=Cc1ccccc1)NCCn1ccnn1` [9a], the melting point fell in the range of 140 to 141 °C. `O=C(C=Cc1ccccc1)NCCn1cc(C2CCCCC2)nn1` [9c] gave a melting point of 159 to 161 °C. With `O=C(C=Cc1ccccc1)NCCn1cc(C2=CCCCC2)nn1` [9d], the melting point lay in the range of 170 to 171 °C. On the same count and under the same terms, the result for `O=C(C=Cc1ccccc1)NCCn1cc(-c2ccccc2)nn1` [9e] reads 171 to 173 °C; that for `Cc1ccc(-c2cn(CCNC(=O)C=Cc3ccccc3)nn2)cc1` [9f], 208 °C.

The molecule `O=C(C=Cc1ccccc1)NCCn1cc(-c2ccc(F)cc2)nn1` [9g] returned a melting point of 193 to 196 °C. Molecule `O=Cc1ccc(-c2cn(CCNC(=O)C=Cc3ccccc3)nn2)cc1` [9h] showed a melting point of 200 to 201 °C. Take `O=C(/C=C/c1ccc(O)c(O)c1)OCCn1ccnn1` [15a, (E)-2-(1H-1,2,3-Triazol-1-yl)ethyl 3-(3,4-Dihydroxyphenyl)acrylate]: the melting point was 196 to 198 °C (dec.). This molecule also displayed a half-inhibitory concentration (IC50) in data set [1] of 9.55 µM. On 5-LO [2] (stimulated human PMNL, 1 μM), the “5-LO inhibition in stimulated human PMNL (in words)” value is listed as “complete loss of inhibition”. Turning to `CCCc1cn(CCOC(=O)/C=C/c2ccc(O)c(O)c2)nn1` [15b], the melting point is 180 to 181 °C (dec.). The molecule also displayed an IC50 in data set [1] of 9.37 µM.

Take `O=C(/C=C/c1ccc(O)c(O)c1)OCCn1cc(C2CCCCC2)nn1` [15c]: the melting point was 191 °C (dec.). The molecule also gave an IC50 in data set [1] of 9.3 µM.

As to `O=C(/C=C/c1ccc(O)c(O)c1)OCCn1cc(C2=CCCCC2)nn1` [15d], the melting point is 219 to 220 °C (dec.). This molecule displayed an IC50 in data set [1] of 8.7 µM. In addition, the “5-LO inhibition in stimulated human PMNL (in words)” value on 5-LO [2] (stimulated human PMNL, 1 μM) is on record as “roughly equipotent with Zileuton”.

`O=C(/C=C/c1ccc(O)c(O)c1)OCCn1cc(-c2ccccc2)nn1` [15e]: the melting point was 193 to 195 °C (dec.). In data set [1], this molecule had an IC50 of 15.1 µM.

For the molecule `Cc1ccc(-c2cn(CCOC(=O)/C=C/c3ccc(O)c(O)c3)nn2)cc1` [15f], the melting point was 181 to 182 °C (dec.). This molecule also came in with an IC50 in data set [1] of 9.01 µM. For the same molecule, the “potency relative to Zileuton (1) in HEK293 cells” value on 5-LO [3] is listed as “four times more potent than Zileuton”. Also, at 5-LO [2], the “potency relative to Zileuton (1) in human PMNL” value is given as “equivalent to Zileuton” and the IC50 worked out at 3.1 µM. Further, at 5-LO [2] (stimulated human PMNL, 1 μM), the “5-LO inhibition in stimulated human PMNL (in words)” value is “roughly equipotent with Zileuton”. Regarding `O=C(/C=C/c1ccc(O)c(O)c1)OCCn1cc(-c2ccc(F)cc2)nn1` [15g], the melting point was 238 to 240 °C (dec.). Also, the IC50 in data set [1] was determined as 9.4 µM. Further, on 5-LO [3], the “potency relative to Zileuton (1) in HEK293 cells” value is “four times more potent than Zileuton”. Besides, at 5-LO [2], the “potency relative to Zileuton (1) in human PMNL” value is “equivalent to Zileuton” and the half-inhibitory concentration (IC50) was 3.3 µM. Consider `O=Cc1ccc(-c2cn(CCOC(=O)/C=C/c3ccc(O)c(O)c3)nn2)cc1` [15h], for which the melting point was 220 to 230 °C (dec.). In data set [1], this molecule had a half-maximal inhibitory concentration (IC50) of 8.85 µM. In addition, the “5-LO inhibition in stimulated human PMNL (in words)” value at 5-LO [2] (stimulated human PMNL, 1 μM) was “roughly equipotent with Zileuton”. Turning to `O=C(/C=C/c1ccc(O)c(O)c1)NCCn1ccnn1` [16a], the melting point is 163 to 165 °C. For the same molecule, the IC50 in data set [1] came to 15.4 µM. `CCCc1cn(CCNC(=O)/C=C/c2ccc(O)c(O)c2)nn1` [16b] registered a melting point of 163 to 165 °C. For the same molecule, in data set [1], the half-maximal inhibitory concentration (IC50) is 12.1 µM. The molecule `O=C(/C=C/c1ccc(O)c(O)c1)NCCn1cc(C2CCCCC2)nn1` [16c] came in with a melting point of 183 to 184 °C. This molecule also came in with an IC50 in data set [1] of 9.87 µM. As for `O=C(/C=C/c1ccc(O)c(O)c1)NCCn1cc(C2=CCCCC2)nn1` [16d], the melting point fell in the range of 168 to 169 °C. This molecule also had an IC50 in data set [1] of 11.2 µM. As to `O=C(/C=C/c1ccc(O)c(O)c1)NCCn1cc(-c2ccccc2)nn1` [16e], the melting point is 208 °C (dec.). The molecule also came in with an IC50 in data set [1] of 10.5 µM. Take `O=Cc1ccc(-c2cn(CCNC(=O)/C=C/c3ccc(O)c(O)c3)nn2)cc1` [16h]: the melting point was 228 to 230 °C (dec.). 18.1 µM corresponded to half-maximal inhibition in data set [1] (IC50). For `O=C1O[C@H]([C@@H](O)CO)C(O)=C1O` [Ascorbic acid, reference compound], inhibition in data set [1] was half-maximal at 75.4 µM (IC50).

Take `O=C(/C=C/c1ccc(O)c(O)c1)OCCc1ccccc1` [CAPE 2, caffeic acid phenethyl ester, reference compound]: it took 16.5 µM to reach half-maximal inhibition in data set [1] (IC50). At 5-LO [3] (whole HEK293 cells, 1 μM), the “5-LO products synthesis, % of the control value” was “roughly 50%”. For the same molecule, the inhibition at 1 µM on 5-LO [3] (whole HEK293 cells, 1 μM, read-out: inhibition of LTs biosynthesis) is roughly 50%; at 5-LO [2] (read-out: inhibition of 5-LO, stimulated human PMNL, 1 μM), roughly 75%. Molecule `CC(c1cc2ccccc2s1)N(O)C(N)=O` (stereo not drawn) [Zileuton 1, Zileuton, reference compound] registered a half-inhibitory concentration (IC50) in data set [1] greater than 100 µM. Moreover, at 5-LO [3] (whole HEK293 cells, 1 μM), the “5-LO inhibition in whole HEK293 cells (in words)” value is “little to no activity”. This molecule also showed an inhibition at 10 µM against 5-LO [3] (whole HEK293 cells, 10 μM (not shown)) of roughly 25%. In data set [1], `O=C(/C=C/c1ccc(O)c(O)c1)OCCn1cc(COC(=O)/C=C/c2ccccc2)nn1` [compound 3, reference compound] registered an IC50 of 12 µM. Also, the “5-LO inhibition in stimulated human PMNL (in words)” value at 5-LO [2] (stimulated human PMNL, 1 μM) is listed as “roughly equipotent with Zileuton”.

The melting point is the temperature of the solid-liquid transition. Usually IC50 stands for the concentration needed to halve the response being measured. Usually inhibition stands for the drop in the measured response relative to a control, in per cent.

(Values after paper PMC4207410, “Clicked Cinnamic/Caffeic Esters and Amides as Radical Scavengers and 5-Lipoxygenase Inhibitors” (International Journal of Medicinal Chemistry, 2014).)
